Results: publication PMC7913927, “Leishmanicidal Activity of Betulin Derivatives in Leishmania amazonensis; Effect on Plasma and Mitochondrial Membrane Potential, and Macrophage Nitric Oxide and Superoxide Production” (Microorganisms, 2021)

Tests used:
[1] = Cytotoxicity (Alamar Blue) in macrophages; format: cell-based, murine; conditions: mouse, J774.1 macrophages
Procedure: In flat-bottom 96-well culture plates, J774.1 macrophages were seeded at a cell density of 5 × 10^4 mL^−1 (10,000 macrophages/well) in 200 µL of RPMIc. After 24 h at 37 °C, 5% CO2, medium was replaced by 180 µL of RPMIc, without phenol red, and increasing concentrations of test compounds in 2-µL volumes. […] At least two independent experiments were performed in duplicate. Based on the inhibition of cell growth caused by the tested compounds, the percentage of growth inhibition compared to untreated cells was calculated. […] Selectivity indices (SI) were calculated, dividing the macrophage CC50 by the parasites GI50 (SI = CC50/GI50).

[2] = tested on: L. (L.) amazonensis LTB0016 promastigotes; experiment: Promastigote in vitro susceptibility (Alamar Blue/resazurin), reference strain; format: cell-based, Leishmania amazonensis; conditions: Leishmania amazonensis; LTB0016 promastigotes, 72 h; read-out: Promastigote (GI50) mean
Procedure: The fluorometric method of Alamar Blue® (resazurin) was used. Promastigotes grown in biphasic agar-blood medium, at the exponential phase of growth, were seeded in flat-bottom 96-well culture plates, at a cell density of 1 × 10^6 parasites mL^−1 (200,000 parasites/well), in 180 µL of RPMIc without phenol red. Subsequently, either a sole concentration (50 µM), or increasing concentrations of compounds or drugs were applied, according to each treatment group, in volumes of 2 µL. Plates were kept at 26 °C, in a humid chamber, for 72 h. […] Live parasites are metabolically active and capable of reducing non-fluorescent resazurin (blue) to fluorescent resorufin (red). Fluorescence intensity is directly proportional to the number of viable cells. […] At least two independent experiments were performed in duplicate. The effect of trivalent antimonial [SbIII, potassium antimonyl tartrate trihydrate, Sigma-Aldrich, (St. Louis, MO, USA)] was included as positive control of the assay.

[3] = tested on: VE98MR intracellular amastigotes in J774.1 macrophages; experiment: Macrophage-amastigote model, patient isolate VE98MR; format: cell-based, Leishmania amazonensis
Procedure: (§1) We used a previously described methodology, with some modifications. Macrophage monolayers, grown in RMPIc medium, for 3 days, were detached from the bottom of the culture chamber, by physical treatment (low temperature and light strokes). Obtained macrophages were seeded in flat-bottom 96-well culture plates, at a density of 2 × 10^5 cells mL^−1 (40,000 macrophages/well), in a final volume of 200 µL. Plates were incubated for 2 h, and the supernatant was discarded to remove non-adhered macrophages. Medium was replaced with stationary-phase promastigotes suspended in 200 µL of RPMIc (2 × 10^6 parasites mL^−1, 400,000 parasites/well), at a macrophage: parasite ratio 1:10 [40]. The plates were incubated for 4 h. Afterwards the medium was replaced with fresh RPMIc and increasing concentrations of compounds or drugs tested were applied, in volumes of 2 µL, according to the different treatment groups. Plates were kept for 72 h, at 37 °C and 5% CO2. The medium was discarded and the wells were washed twice with PBS. Next, a Giemsa staining was performed in situ. It consisted of adding 200 µL of methanol/well, incubating for 5 min, discarding the fixative, and letting it dry at room temperature. Later, the Giemsa solution (10% in PBS w/v, 200 µL/well) was added, incubated for 10 min, and washed with PBS, allowing it to dry. Finally, the bottom of the plates was detached by percussion and the circular bottoms (wells) were fixed to slides with Permount synthetic resin, for later evaluation (Alcazar W., manuscript in preparation). Cell counting was performed with a 100× immersion objective. A minimum of 200 random macrophages were examined. The percentage of infected macrophages (% infection) and the average number of amastigotes present in infected macrophages (amastigotes) were determined. […] The infection rate represents the number of intracellular amastigotes per 100 macrophages evaluated. Additionally, the GI50 for the decrease in the infection rate was calculated. At least three independent experiments were performed. The effect of amphotericin-B (AmB) [Sigma-Aldrich, (St. Louis, MO, USA)] was included as positive control of the assay.

[4] = tested on: LTB0016 intracellular amastigotes in J774.1 macrophages; experiment: Macrophage-amastigote model, reference strain; format: cell-based, Leishmania amazonensis
Procedure: as §1

[5] = tested on: VE2000MM intracellular amastigotes in J774.1 macrophages; experiment: Macrophage-amastigote model, patient isolate VE2000MM; format: cell-based, Leishmania amazonensis
Procedure: as §1

[6] = J774.1 CC50 / intracellular amastigote GI50, Table 2

With C[C@@H]1[C@H](O)[C@@H](C)/C=C/C=C/C=C/C=C/C=C/C=C/C=C/[C@H](O[C@@H]2O[C@H](C)[C@@H](O)[C@H](N)[C@@H]2O)C[C@@H]2O[C@](O)(C[C@@H](O)C[C@@H](O)[C@H](O)CC[C@@H](O)C[C@@H](O)CC(=O)O[C@H]1C)C[C@H](O)[C@H]2C(=O)O [AmB, amphotericin-B, reference compound] the CC50 at 72 h [1] was > 10 µM, the GI50 [2] was 0.068 µM and the “SI (CC50/GI50) VE98MR” value [3, 6] was >136. The GI50 ([3]; Leishmania amazonensis, J774.1, intracellular amastigotes, 72 h, Table 2, read-out: GI50 (µM) VE98MR) was 0.073 µM, the “Growth (%) Exp1 %Control” value ([3]; VE98MR, dose 0.10 µM, Exp1) was 10.60% and the “Growth (%) Exp1 A/100MØ” value ([3]; VE98MR, dose 0.10 µM, Exp1) was 17.06. For the same compound, the “Growth (%) Exp1 A/MØ” value ([3]; VE98MR, dose 0.10 µM, Exp1) was 1.26, the “Growth (%) Exp1 Infección” value ([3]; VE98MR, dose 0.10 µM, Exp1) was 13.54% and the “Growth (%) Exp2 %Control” value ([3]; VE98MR, dose 0.10 µM, Exp2) was 2.71%. The “Growth (%) Exp2 A/100MØ” value ([3]; VE98MR, dose 0.10 µM, Exp2) was 5.60, the “Growth (%) Exp2 A/MØ” value ([3]; VE98MR, dose 0.10 µM, Exp2) was 1.16 and the “Growth (%) Exp2 Infección” value ([3]; VE98MR, dose 0.10 µM, Exp2) was 4.83%. The “Growth (%) Exp3 %Control” value ([3]; VE98MR, dose 0.10 µM, Exp3) was 6.21%, the “Growth (%) Exp3 A/100MØ” value ([3]; VE98MR, dose 0.10 µM, Exp3) was 15.40 and the “Growth (%) Exp3 A/MØ” value ([3]; VE98MR, dose 0.10 µM, Exp3) was 2.00. For the same compound, the “Growth (%) Exp3 Infección” value ([3]; VE98MR, dose 0.10 µM, Exp3) was 7.70%, the “Average A/100MØ” value ([3]; VE98MR, dose 0.10 µM, average of Exp1-3) was 12.69 and the “SI (CC50/GI50) LTB0016” value [4, 6] was >500. The “Growth (%) Exp1 Infección” value ([4]; LTB0016, 0.10 µM, 72 h, Exp1, % infected macrophages) was 12.89%, the “Growth (%) Exp1 A/MØ” value ([4]; LTB0016, 0.10 µM, 72 h, Exp1, amastigotes per infected macrophage) was 2.10 and the “Growth (%) Exp1 A/100MØ” value ([4]; LTB0016, 0.10 µM, 72 h, Exp1, infection index) was 27.07. For the same compound, the “Growth (%) Exp1 %Control” value ([4]; LTB0016, 0.10 µM, 72 h, Exp1, infection index vs DMSO) was 10.32%, the “Growth (%) Exp2 Infección” value ([4]; LTB0016, 0.10 µM, 72 h, Exp2, % infected macrophages) was 13.33% and the “Growth (%) Exp2 A/MØ” value ([4]; LTB0016, 0.10 µM, 72 h, Exp2, amastigotes per infected macrophage) was 1.38. For the same compound, the “Growth (%) Exp2 A/100MØ” value ([4]; LTB0016, 0.10 µM, 72 h, Exp2, infection index) was 18.40, the “Growth (%) Exp2 %Control” value ([4]; LTB0016, 0.10 µM, 72 h, Exp2, infection index vs DMSO) was 8.65% and the “Growth (%) Exp3 Infección” value ([4]; LTB0016, 0.10 µM, 72 h, Exp3, % infected macrophages) was 8.08%. The “Growth (%) Exp3 A/MØ” value ([4]; LTB0016, 0.10 µM, 72 h, Exp3, amastigotes per infected macrophage) was 1.33, the “Growth (%) Exp3 A/100MØ” value ([4]; LTB0016, 0.10 µM, 72 h, Exp3, infection index) was 10.75 and the “Growth (%) Exp3 %Control” value ([4]; LTB0016, 0.10 µM, 72 h, Exp3, infection index vs DMSO) was 6.05%. The “Average A/100MØ” value ([4]; LTB0016, 0.10 µM, 72 h, average of Exp1-3) was 18.74, the GI50 ([4]; Leishmania amazonensis, J774.1, intracellular amastigotes, 72 h, Table 2, read-out: GI50 (µM) LTB0016) was 0.02 µM and the “SI (CC50/GI50) VE2000MM” value [5, 6] was >125. For the same compound, the GI50 ([5]; Leishmania amazonensis, J774.1, intracellular amastigotes, 72 h, Table 2, read-out: GI50 (µM) VE2000MM) was 0.08 µM, the “Growth (%) Exp1 %Control” value ([5]; VE2000MM, dose 0.10 µM, Exp1) was 7.30% and the “Growth (%) Exp1 A/100MØ” value ([5]; VE2000MM, dose 0.10 µM, Exp1) was 18.04. The “Growth (%) Exp1 A/MØ” value ([5]; VE2000MM, dose 0.10 µM, Exp1) was 1.70, the “Growth (%) Exp1 Infección” value ([5]; VE2000MM, dose 0.10 µM, Exp1) was 10.61% and the “Growth (%) Exp2 %Control” value ([5]; VE2000MM, dose 0.10 µM, Exp2) was 9.84%. The “Growth (%) Exp2 A/100MØ” value ([5]; VE2000MM, dose 0.10 µM, Exp2) was 23.78, the “Growth (%) Exp2 A/MØ” value ([5]; VE2000MM, dose 0.10 µM, Exp2) was 2.17 and the “Growth (%) Exp2 Infección” value ([5]; VE2000MM, dose 0.10 µM, Exp2) was 10.96%. For the same compound, the “Growth (%) Exp3 %Control” value ([5]; VE2000MM, dose 0.10 µM, Exp3) was 7.62%, the “Growth (%) Exp3 A/100MØ” value ([5]; VE2000MM, dose 0.10 µM, Exp3) was 17.22 and the “Growth (%) Exp3 A/MØ” value ([5]; VE2000MM, dose 0.10 µM, Exp3) was 2.00. The “Growth (%) Exp3 Infección” value ([5]; VE2000MM, dose 0.10 µM, Exp3) was 8.61% and the “Average A/100MØ” value ([5]; VE2000MM, dose 0.10 µM, average of Exp1-3) was 19.68.
